According to patent US12115172B2, “Sulfate-free cleansing composition that confers high salicylic acid deposition” (L'OREAL, priority 2021, dated 2024):

Assay: HLB value of the surfactant
Assay type: physicochemical
Settings: of the 30% anionic surfactant used in the composition
From the text: The term “Hydrophilic-Lipophilic Balance” or “HLB,” refers to an empirical expression for the relationship of the hydrophilic and hydrophobic groups of an emulsifier. This term is well known to those skilled in the art. See, e.g., “The HLB system.

Row | Molecule | HLB VALUE
1 | DECYL GLUCOSIDE (APGS) | 13
2 | CCCCCCCCCCCCOS(=O)(=O)[O-].[Na+] [SODIUM LAURYL SULFATE] | 40.1
3 | SODIUM COCOYL GLYCINATE | 14
4 | SODIUM LAUROYL SARCOSINATE | 29.8
